Results taken from article PMC8160456, “Molecular Mechanism of Citrate Efflux by the Mitochondrial Citrate Transporter CT in Filamentous Fungus Mucor circinelloides WJ11” (Frontiers in Microbiology, 2021).

Molecular target: T1, CT (mitochondrial citrate transporter) (Mucor circinelloides, UniProt S2JNX7)
T1 construct: gene HMPREF1544_02933; complete ct gene, codon-optimised, pET30a(+) NdeI-ATG-ct-Histag-stop-HindIII (C-terminal His tag kept); E. coli BL21(DE3) inclusion bodies, urea-solubilised, Ni column, renatured, reconstituted in liposomes; about 32 kDa; three Mtc domains 10-104, 106-199, 209-296
T1 sequence (S2JNX7 1-301): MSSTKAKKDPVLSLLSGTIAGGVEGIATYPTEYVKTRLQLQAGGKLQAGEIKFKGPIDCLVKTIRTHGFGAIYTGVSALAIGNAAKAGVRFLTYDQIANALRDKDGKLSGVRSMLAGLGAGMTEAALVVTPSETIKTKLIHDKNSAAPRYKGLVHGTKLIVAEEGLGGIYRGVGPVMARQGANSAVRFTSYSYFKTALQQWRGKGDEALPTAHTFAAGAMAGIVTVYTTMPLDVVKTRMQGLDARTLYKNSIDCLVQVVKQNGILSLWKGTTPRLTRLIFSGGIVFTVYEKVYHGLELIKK
Test: inhibition of […]citrate/citrate exchange in CT-reconstituted liposomes
Format: biochemical
Conditions: 20 mM inhibitor; 0.01 mM [14C]citrate outside, 10 mM citrate inside; 2 min

SMILES: Cc1ncc(COP(=O)(O)O)c(C=O)c1O [pyridoxal-5'-phosphate]
- inhibition at 20 mM: This activity was inhibited strongly by PLP
